Laboratory results as given in ChEMBL document CHEMBL1147193, “New 5-substituted thiazolo[3,2-b][1,2,4]triazol-6-ones: synthesis and anticancer evaluation” (2007).

How the values were obtained:
Format in all cases: functional
[1] = test system: LOX IMVI; assay: Growth inhibition of human LOX IMVI cells after 48 hrs by SRB protein assay
[2] = test system: HCC 2998; assay: Growth inhibition of human HCC2998 cells after 48 hrs by SRB protein assay; settings: HCC 2998, 48 h
[3] = test system: OVCAR-3; assay: Growth inhibition of human OVCAR-3 cells after 48 hrs by SRB protein assay; settings: OVCAR-3, 48 h
[4] = test system: NCI-H226; assay: Growth inhibition of human NCI-H226 cells after 48 hrs by SRB protein assay; settings: NCI-H226, 48 h
[5] = test system: OVCAR-5; assay: Growth inhibition of human OVCAR5 cells after 48 hrs by SRB protein assay; settings: OVCAR-5, 48 h
[6] = test system: SF-268; assay: Growth inhibition of human SF268 cells after 48 hrs by SRB protein assay; settings: SF-268, 48 h
[7] = test system: HOP-62; assay: Growth inhibition of human HOP62 cells after 48 hrs by SRB protein assay; settings: HOP-62, 48 h
[8] = test system: KM12; assay: Growth inhibition of human KM12 cells after 48 hrs by SRB protein assay; settings: KM12, 48 h
[9] = test system: SK-MEL-2; assay: Growth inhibition of human SK-MEL-2 cells after 48 hrs by SRB protein assay; settings: SK-MEL-2, 48 h
[10] = test system: HCT-15; assay: Growth inhibition of human HCT15 cells after 48 hrs by SRB protein assay; settings: HCT-15, 48 h
[11] = test system: 786-0; assay: Growth inhibition of human 786-0 cells after 48 hrs by SRB protein assay; settings: 786-0, 48 h
[12] = test system: RXF 393; assay: Growth inhibition of human RXF393 cells after 48 hrs by SRB protein assay; settings: RXF 393, 48 h
[13] = test system: MCF7; assay: Growth inhibition of human MCF7 cells after 48 hrs by SRB protein assay; settings: MCF7, 48 h
[14] = test system: NCI-H522; assay: Growth inhibition of human NCI-H522 cells after 48 hrs by SRB protein assay; settings: NCI-H522, 48 h
[15] = test system: SK-MEL-5; assay: Growth inhibition of human SK-MEL-5 cells after 48 hrs by SRB protein assay; settings: SK-MEL-5, 48 h
[16] = test system: RPMI-8226; assay: Growth inhibition of human RPMI8226 cells after 48 hrs by SRB protein assay; settings: RPMI-8226, 48 h
[17] = test system: CAKI-1; assay: Growth inhibition of human CAKI1 cells after 48 hrs by SRB protein assay; settings: CAKI-1, 48 h
[18] = test system: NCI-H460; assay: Anticancer activity against human NCI-H460 cells assessed as growth of cells at 100 uM relative to untreated cells
[19] = test system: OVCAR-8; assay: Growth inhibition of human OVCAR8 cells after 48 hrs by SRB protein assay; settings: OVCAR-8, 48 h
[20] = test system: SK-OV-3; assay: Growth inhibition of human SK-OV-3 cells after 48 hrs by SRB protein assay; settings: SK-OV-3, 48 h
[21] = test system: K562; assay: Growth inhibition of human K562 cells after 48 hrs by SRB protein assay; settings: K562, 48 h
[22] = test system: UACC-62; assay: Growth inhibition of human UACC62 cells after 48 hrs by SRB protein assay; settings: UACC-62, 48 h
[23] = test system: SN12C; assay: Growth inhibition of human SN12C cells after 48 hrs by SRB protein assay
[24] = test system: ACHN; assay: Growth inhibition of human ACHN cells after 48 hrs by SRB protein assay
[25] = test system: NCI/ADR-RES; assay: Growth inhibition of human NCI/ADR-RES cells after 48 hrs by SRB protein assay
[26] = test system: IGROV-1; assay: Growth inhibition of human IGROV1 cells after 48 hrs by SRB protein assay; settings: IGROV-1, 48 h
[27] = test system: UO-31; assay: Growth inhibition of human UO31 cells after 48 hrs by SRB protein assay; settings: UO-31, 48 h
[28] = test system: BT-549; assay: Growth inhibition of human BT549 cells after 48 hrs by SRB protein assay; settings: BT-549, 48 h
[29] = test system: EKVX; assay: Growth inhibition of human EKVX cells after 48 hrs by SRB protein assay
[30] = test system: SF-295; assay: Growth inhibition of human SF295 cells after 48 hrs by SRB protein assay; settings: SF-295, 48 h
[31] = test system: PC-3; assay: Growth inhibition of human PC3 cells after 48 hrs by SRB protein assay; settings: PC-3, 48 h
[32] = test system: A549; assay: Growth inhibition of human A549/ATCC cells after 48 hrs by SRB protein assay; settings: A549, 48 h
[33] = test system: SF-268; assay: Anticancer activity against human SF268 cells assessed as growth of cells at 100 uM relative to untreated cells
[34] = Growth inhibition of human MDA-MB-231/ATCC cells after 48 hrs by SRB protein assay; settings: MDA-MB-231, 48 h
[35] = test system: SK-MEL-28; assay: Growth inhibition of human SK-MEL-28 cells after 48 hrs by SRB protein assay; settings: SK-MEL-28, 48 h
[36] = test system: SW-620; assay: Growth inhibition of human SW620 cells after 48 hrs by SRB protein assay; settings: SW-620, 48 h
[37] = test system: T47D; assay: Growth inhibition of human T47D cells after 48 hrs by SRB protein assay
[38] = test system: Hs-578T; assay: Growth inhibition of human HS578T cells after 48 hrs by SRB protein assay
[39] = test system: M14; assay: Growth inhibition of human M14 cells after 48 hrs by SRB protein assay; settings: M14, 48 h

GI50 [2]: 63.1 µM | GI50 [3]: 37.2 µM | GI50 [4]: > 100 µM | GI50 [5]: 55 µM | GI50 [9]: > 100 µM | GI50 [10]: 63.1 µM | GI50 [11]: 51.3 µM | GI50 [13]: 32.4 µM | GI50 [14]: 50.1 µM | GI50 [15]: 41.7 µM | GI50 [16]: 26.3 µM | GI50 [19]: 44.7 µM | GI50 [20]: > 100 µM | GI50 [21]: 38.9 µM | GI50 [24]: 81.3 µM | GI50 [28]: 42.7 µM | GI50 [31]: 53.7 µM | GI50 [32]: 87.1 µM | GI50 [35]: 52.5 µM | GI50 [36]: 66.1 µM | GI50 [37]: 91.2 µM
Compound: O=c1/c(=C/c2ccc(F)cc2)sc2ncnn12
GI50 [1]: 37.2 µM | TGI ([1]; read-out: Log TGI (converted)): > 100 µM | TGI ([2]; read-out: Log TGI (converted)): > 100 µM | TGI ([3]; read-out: Log TGI (converted)): > 100 µM | TGI ([4]; read-out: Log TGI (converted)): > 100 µM | TGI ([5]; read-out: Log TGI (converted)): > 100 µM | GI50 [6]: 33.9 µM | TGI ([6]; read-out: Log TGI (converted)): > 100 µM | GI50 [7]: 70.8 µM | TGI ([7]; read-out: Log TGI (converted)): > 100 µM | GI50 [8]: 35.5 µM | TGI ([8]; read-out: Log TGI (converted)): > 100 µM | TGI ([9]; read-out: Log TGI (converted)): 51.3 µM | TGI ([10]; read-out: Log TGI (converted)): > 100 µM | TGI ([11]; read-out: Log TGI (converted)): > 100 µM | GI50 [12]: 46.8 µM | TGI ([12]; read-out: Log TGI (converted)): 100 µM | TGI ([13]; read-out: Log TGI (converted)): > 100 µM | TGI ([14]; read-out: Log TGI (converted)): > 100 µM | TGI ([15]; read-out: Log TGI (converted)): > 100 µM | TGI ([16]; read-out: Log TGI (converted)): 79.4 µM | GI50 [17]: 69.2 µM | TGI ([17]; read-out: Log TGI (converted)): > 100 µM | Activity [18]: 13% | TGI ([19]; read-out: Log TGI (converted)): > 100 µM | TGI ([20]; read-out: Log TGI (converted)): > 100 µM | TGI ([21]; read-out: Log TGI (converted)): > 100 µM | GI50 [22]: 66.1 µM | TGI ([22]; read-out: Log TGI (converted)): > 100 µM | GI50 [23]: 40.7 µM | TGI ([23]; read-out: Log TGI (converted)): > 100 µM | TGI ([24]; read-out: Log TGI (converted)): > 100 µM | GI50 [25]: 38 µM | TGI ([25]; read-out: Log TGI (converted)): > 100 µM | GI50 [26]: 57.5 µM | TGI ([26]; read-out: Log TGI (converted)): > 100 µM | GI50 [27]: 69.2 µM | TGI ([27]; read-out: Log TGI (converted)): > 100 µM | TGI ([28]; read-out: Log TGI (converted)): 100 µM | GI50 [29]: 83.2 µM | TGI ([29]; read-out: Log TGI (converted)): > 100 µM | GI50 [30]: 52.5 µM | TGI ([30]; read-out: Log TGI (converted)): > 100 µM | TGI ([31]; read-out: Log TGI (converted)): > 100 µM | TGI ([32]; read-out: Log TGI (converted)): > 100 µM | Activity [33]: 70% | GI50 [34]: > 100 µM | TGI ([34]; read-out: Log TGI (converted)): > 100 µM | TGI ([35]; read-out: Log TGI (converted)): > 100 µM | TGI ([36]; read-out: Log TGI (converted)): > 100 µM | TGI ([37]; read-out: Log TGI (converted)): > 100 µM | GI50 [38]: 69.2 µM | TGI ([38]; read-out: Log TGI (converted)): > 100 µM | GI50 [39]: 28.8 µM | TGI ([39]; read-out: Log TGI (converted)): > 100 µM
